Test results published in US10336759B2, “Salts and processes of preparing a PI3K inhibitor” (Incyte Corporation, priority 2015, dated 2019).

Columns and labels:
JAK1 = JAK1 (Homo sapiens (Human), UniProt P23458); assay: Assay A, JAK1 IC50 at 1 mM ATP; type: biochemical; conditions: method of Assay A at 1 mM ATP; #3 data for enantiomer 1, #14 data for enantiomer 2
JAK2 = JAK2 (Homo sapiens (Human), UniProt O60674); assay: Assay A, JAK2 versus JAK1 (ratio); type: biochemical; conditions: ratio of IC50s, Assay A at 1 mM ATP
Chain of JAK2 (O60674 whole entry, species assumed): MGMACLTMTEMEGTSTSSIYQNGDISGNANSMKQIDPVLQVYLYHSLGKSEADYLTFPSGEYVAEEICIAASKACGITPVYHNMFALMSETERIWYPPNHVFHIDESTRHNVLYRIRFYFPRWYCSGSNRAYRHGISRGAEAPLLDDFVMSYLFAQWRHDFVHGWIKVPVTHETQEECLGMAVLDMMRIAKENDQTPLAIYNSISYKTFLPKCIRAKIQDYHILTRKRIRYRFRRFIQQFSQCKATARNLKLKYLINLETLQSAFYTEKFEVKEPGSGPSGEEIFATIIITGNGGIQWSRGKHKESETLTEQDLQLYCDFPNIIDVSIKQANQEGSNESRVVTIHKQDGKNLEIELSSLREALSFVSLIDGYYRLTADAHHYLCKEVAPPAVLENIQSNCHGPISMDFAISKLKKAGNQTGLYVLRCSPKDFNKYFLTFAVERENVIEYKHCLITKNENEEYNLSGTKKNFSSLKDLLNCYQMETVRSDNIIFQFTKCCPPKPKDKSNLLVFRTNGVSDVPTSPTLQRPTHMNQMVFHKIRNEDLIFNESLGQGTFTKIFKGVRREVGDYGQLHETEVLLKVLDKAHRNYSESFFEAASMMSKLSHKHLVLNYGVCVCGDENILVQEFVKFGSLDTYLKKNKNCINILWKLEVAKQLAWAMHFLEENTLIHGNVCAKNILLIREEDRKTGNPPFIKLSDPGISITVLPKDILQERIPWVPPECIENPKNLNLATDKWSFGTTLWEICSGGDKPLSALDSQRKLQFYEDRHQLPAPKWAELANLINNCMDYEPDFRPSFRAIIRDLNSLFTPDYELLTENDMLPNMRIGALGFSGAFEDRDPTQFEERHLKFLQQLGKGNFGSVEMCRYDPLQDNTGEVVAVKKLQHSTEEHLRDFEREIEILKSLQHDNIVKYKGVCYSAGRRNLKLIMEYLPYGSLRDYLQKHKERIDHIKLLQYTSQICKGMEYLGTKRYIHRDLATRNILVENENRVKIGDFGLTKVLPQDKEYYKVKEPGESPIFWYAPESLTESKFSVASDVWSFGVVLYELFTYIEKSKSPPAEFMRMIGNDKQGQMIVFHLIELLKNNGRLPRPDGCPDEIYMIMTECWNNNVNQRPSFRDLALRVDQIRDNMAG

Chain of JAK1 (P23458 whole entry, species assumed): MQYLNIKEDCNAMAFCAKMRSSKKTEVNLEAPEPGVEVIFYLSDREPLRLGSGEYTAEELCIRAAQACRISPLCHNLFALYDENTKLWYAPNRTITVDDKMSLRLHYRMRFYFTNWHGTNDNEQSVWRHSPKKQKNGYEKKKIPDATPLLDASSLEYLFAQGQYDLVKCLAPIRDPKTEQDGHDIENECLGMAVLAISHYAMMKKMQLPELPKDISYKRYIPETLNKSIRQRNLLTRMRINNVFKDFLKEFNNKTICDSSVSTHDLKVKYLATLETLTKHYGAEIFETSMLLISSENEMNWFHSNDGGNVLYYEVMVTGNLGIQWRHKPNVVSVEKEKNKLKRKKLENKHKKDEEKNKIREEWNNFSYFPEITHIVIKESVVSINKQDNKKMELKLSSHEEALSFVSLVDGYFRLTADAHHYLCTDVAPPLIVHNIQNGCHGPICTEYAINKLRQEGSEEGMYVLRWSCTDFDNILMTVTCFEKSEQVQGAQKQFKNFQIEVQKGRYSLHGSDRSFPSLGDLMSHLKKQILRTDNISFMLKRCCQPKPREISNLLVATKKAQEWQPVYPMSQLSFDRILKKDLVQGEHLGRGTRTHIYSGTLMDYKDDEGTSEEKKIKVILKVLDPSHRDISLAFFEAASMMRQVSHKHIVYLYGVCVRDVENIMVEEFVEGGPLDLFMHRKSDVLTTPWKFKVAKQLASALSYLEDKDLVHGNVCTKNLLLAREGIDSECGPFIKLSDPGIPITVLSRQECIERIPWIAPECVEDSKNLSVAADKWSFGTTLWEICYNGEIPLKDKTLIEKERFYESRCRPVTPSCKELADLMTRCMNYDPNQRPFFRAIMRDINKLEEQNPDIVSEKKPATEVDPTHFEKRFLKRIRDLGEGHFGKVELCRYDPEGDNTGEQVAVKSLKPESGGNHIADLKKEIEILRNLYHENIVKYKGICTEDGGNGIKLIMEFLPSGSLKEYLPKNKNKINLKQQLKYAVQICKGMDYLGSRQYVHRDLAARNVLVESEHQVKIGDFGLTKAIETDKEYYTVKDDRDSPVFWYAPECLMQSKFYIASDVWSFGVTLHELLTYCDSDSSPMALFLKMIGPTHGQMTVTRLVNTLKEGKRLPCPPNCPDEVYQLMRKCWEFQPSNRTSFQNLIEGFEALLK

Compound	IC50 (JAK1) [nM]	JAK2/JAK1 (JAK2)
N#CCC(C1CCN(c2cccc(Cl)n2)C1)n1cc(-c2ncnc3[nH]ccc23)cn1 (single isomer, unassigned) [Example 3, 3-[1-(6-chloropyridin-2-yl)pyrrolidin-3-yl]-3-[4-(7H-pyrrolo[2,3-d]pyrimidin-4-yl)-1H-pyrazol-1-yl]propanenitrile]	< 10	>10
C[C@@H](O)c1nc2cnc3ccsc3c2n1[C@H]1CC[C@H](CC#N)OC1 [Example 1, ((2R,5S)-5-{2-[(1R)-1-hydroxyethyl]-1H-imidazo[4,5-d]thieno[3,2-b]pyridin-1-yl}tetrahydro-2H-pyran-2-yl)acetonitrile]	–	>10
N#CCC(C1CCN(c2nc3cccnc3o2)C1)n1cc(-c2ncnc3[nH]ccc23)cn1 (stereo not shown) [Example 4, 3-(1-[1,3]oxazolo[5,4-b]pyridin-2-ylpyrrolidin-3-yl)-3-[4-(7H-pyrrolo[2,3-. d]pyrimidin-4-yl)-1H-pyrazol-1-yl]propanenitrile]	< 10	>10
N#CCC(CN1CCN(C(=O)c2ccc(C#N)cc2F)CC1)n1cc(-c2ncnc3[nH]ccc23)cn1 (stereo not shown) [Example 5, 4-[(4-{3-cyano-2-[4-(7H-pyrrolo[2,3-d]pyrimidin-4-yl)-1H-pyrazol-1-yl)propyl}piperazin-1-yl)carbonyl]-3-fluorobenzonitrile]	< 10	>10
N#CCC(CN1CCN(C(=O)c2ccc(C#N)cc2F)CC1)n1ccc(-c2ncnc3[nH]ccc23)c1 (stereo not shown) [Example 6, 4-[(4-{3-cyano-2-[3-(7H-pyrrolo[2,3-d]pyrimidin-4-yl)-1H-pyrrol-1-yl]propyl}piperazin-1-yl)carbonyl]-3-fluorobenzonitrile]	< 10	>10
N#CCC1(n2cc(-c3ncnc4[nH]ccc34)cn2)CN(C2CCN(C(=O)c3ccnc(C(F)(F)F)c3F)CC2)C1 [Example 7, {1-{1-[3-Fluoro-2-(trifluoromethyl)isonicotinoyl]piperidin-4-yl}-3-[4-(7H-pyrrolo[2,3-d]pyrimidin-4-yl)-1H-pyrazol-1-yl]azetidin-3-yl}acetonitrile]	< 10	>10
N#CCC1(n2cc(-c3ncnc4[nH]ccc34)cn2)CN(C2CCN(C(=O)Nc3ccc(F)cc3C(F)(F)F)CC2)C1 [Example 8, 4-{3-(Cyanomethyl)-3-[4-(7H-pyrrolo[2,3-d]pyrimidin-4-yl)-1H-pyrazol-1-yl]azetidin-1-yl}-N-[4-fluoro-2-(trifluoromethyl)phenyl] piperidine-1-carboxamide]	< 10	>10
N#CCC1(n2cc(-c3ncnc4[nH]ccc34)cn2)CN(C2CCN(C(=O)c3ccnc(C(F)(F)F)n3)CC2)C1 [Example 9, [3-[4-(7H-pyrrolo[2,3-d]pyrimidin-4-yl)-1H-pyrazol-1-yl]-1-(1-{[2,- (trifluoromethyl)pyrimidin-4-yl]carbonyl}piperidin-4-yl)azetidin-3-yl]acetonitrile]	< 10	>10
N#CC[C@]1(n2cc(-c3ncnc4[nH]ccc34)cn2)C[C@H](N2CCN(C(=O)c3ccnc(C(F)(F)F)n3)CC2)C1 [Example 10, [trans-1-[4-(7H-pyrrolo[2,3-d]pyrimidin-4-yl)-1H-pyrazol-1-yl]-3-(4-{[2-(trifluoromethyl)pyrimidin-4-yl]carbonyl}piperazin-1-yl)cyclobutyl]acetonitrile]	< 10	>10
N#CC[C@]1(n2cc(-c3ncnc4[nH]ccc34)cn2)C[C@H](N2CCC(Oc3cc(CN4CC(O)C4)cc(C(F)(F)F)n3)CC2)C1 [Example 11, {trans-3-(4-{[4-[(3-hydroxyazetidin-1-yl)methyl]-6-(trifluoromethyl)pyridin-2-yl]oxy}piperidin-1-yl)-1-[4-(7H-pyrrolo[2,3-d]pyrimidin-4-yl)-1H-pyrazol-1-yl]cyclobutyl}acetonitrile]	< 10	>10
N#CC[C@]1(n2cc(-c3ncnc4[nH]ccc34)cn2)C[C@H](N2CCC(Oc3cc(CN4CCC[C@H]4CO)cc(C(F)(F)F)n3)CC2)C1 [Example 12]	< 10	>10
N#CC[C@]1(n2cc(-c3ncnc4[nH]ccc34)cn2)C[C@H](N2CCC(Oc3cc(CN4CCC[C@@H]4CO)cc(C(F)(F)F)n3)CC2)C1 [Example 13, {trans-3-(4-{[4-{[(2R)-2-(hydroxymethyl)pyrrolidin-1-yl]methyl}-6-(trifluoromethyl)pyridin-2-yl]oxy}piperidin-1-yl)-1-[4-(7H-pyrrolo[2,3-d]pyrimidin-4-yl)-1H-pyrazol-1-yl]cyclobutyl}acetonitrile]	< 10	>10
C[C@H](NC(=O)c1cc(F)c(N2CC(CC#N)(n3cc(-c4ncnc5[nH]ccc45)cn3)C2)cc1F)C(F)(F)F [Example 16, 4-{3-(cyanomethyl)-3-[4-(7H-pyrrolo[2,3-d]pyrimidin-4-yl)-1H-pyrazol-1-yl]azetidin-1-yl}-2,5-difluoro-N-[(1S)-2,2,2-trifluoro-1-methylethyl]benzamide]	< 10	>10
N#CCC1(n2cc(-c3ncnc4[nH]ccc34)cn2)CN([C@H]2CC[C@@H](Oc3cc(CCO)nc(C(F)(F)F)n3)CC2)C1 [Example 18, {1-(cis-4-{[6-(2-hydroxyethyl)-2-(trifluoromethyl)pyrimidin-4-yl]oxy}cyclohexyl)-3-[4-(7H-pyrrolo[2,3-d]pyrimidin-4-yl)-1H-pyrazol-1-yl]azetidin-3-yl}acetonitrile]	< 10	>10
CCNCc1cc(O[C@H]2CC[C@@H](N3CC(CC#N)(n4cc(-c5ncnc6[nH]ccc56)cn4)C3)CC2)nc(C(F)(F)F)c1 [Example 19, {1-(cis-4-{[4-[(ethylamino)methyl]-6-(trifluoromethyl)pyridin-2-yl]oxy}cyclohexyl)-3-[4-(7H-pyrrolo[2,3-d]pyrimidin-4-yl)-1H-pyrazol-1-yl]lazetidin-3-yl}acetonitrile]	< 10	>10
CC(C)(O)c1cc(O[C@H]2CC[C@@H](N3CC(CC#N)(n4cc(-c5ncnc6[nH]ccc56)cn4)C3)CC2)nc(C(F)(F)F)c1 [Example 20, {1-(cis-4-{[4-(1-hydroxy-1-methylethyl)-6-(trifluoromethyl)pyridin-2-yl]oxy}cyclohexyl)-3-[4-(7H-pyrrolo[2,3-d]pyrimidin-4-yl)-1H-pyrazol-1-yl]azetidin-3-yl}acetonitrile]	< 10	>10
N#CCC1(n2cc(-c3ncnc4[nH]ccc34)cn2)CN([C@H]2CC[C@@H](Oc3cc(CN4CC[C@@H](O)C4)cc(C(F)(F)F)n3)CC2)C1 [Example 21]	< 10	>10
N#CCC1(n2cc(-c3ncnc4[nH]ccc34)cn2)CN([C@H]2CC[C@@H](Oc3cc(CN4CC[C@H](O)C4)cc(C(F)(F)F)n3)CC2)C1 [Example 22, {1-(cis-4-{[4-{[(3S)-3-hydroxypyrrolidin-1-yl]methyl}-6-(trifluoromethyl)pyridin-2-yl]oxy}cyclohexyl)-3-[4-(7H-pyrrolo[2,3-d]pyrimidin-4-yl)-1H-pyrazol-1-yl]azetidin-3-yl}acetonitrile]	< 10	>10
C[C@@H](CO)NCc1cc(OC2CCN([C@H]3C[C@](CC#N)(n4cc(-c5ncnc6[nH]ccc56)cn4)C3)CC2)nc(C(F)(F)F)c1 [Example 23, {trans-3-(4-{[4-({[(1S)-2-hydroxy-1-methylethyl]amino}methyl)-6-(trifluoromethyl)pyridin-2-yl]oxy}piperidin-1-yl)-1-[4-(7H-pyrrolo[2,3-d]pyrimidin-4-yl)-1H-pyrazol-1-yl]cyclobutyl}acetonitrile]	< 10	>10
C[C@@H](O)CNCc1cc(OC2CCN([C@H]3C[C@](CC#N)(n4cc(-c5ncnc6[nH]ccc56)cn4)C3)CC2)nc(C(F)(F)F)c1 [Example 24, {trans-3-(4-{[4-({[(2R)-2-hydroxypropyl]amino}methyl)-6-(trifluoromethyl)pyridin-2-yl]oxy}piperidin-1-yl)-1-[4-(7H-pyrrolo[2,3-d]pyrimidin-4-yl)-1H-pyrazol-1-yl]cyclobutyl}acetonitrile]	< 10	>10
C[C@H](O)CNCc1cc(OC2CCN([C@H]3C[C@](CC#N)(n4cc(-c5ncnc6[nH]ccc56)cn4)C3)CC2)nc(C(F)(F)F)c1 [Example 25, {trans-3-(4-{[4-({[(2S)-2-hydroxypropyl]amino}methyl)-6-(trifluoromethyl)pyridin-2-yl]oxy}piperidin-1-yl)-1-[4-(7H-pyrrolo[2,3-d]pyrimidin-4-yl)-1H-pyrazol-1-yl]cyclobutyl}acetonitrile]	< 10	>10
N#CC[C@]1(n2cc(-c3ncnc4[nH]ccc34)cn2)C[C@H](N2CCC(Oc3cc(CCO)cc(C(F)(F)F)n3)CC2)C1 [Example 26, {trans-3-(4-{[4-(2-hydroxyethyl)-6-(trifluoromethyl)pyridin-2-yl]oxy}piperidin-1-yl)-1-[4-(7H-pyrrolo[2,3-d]pyrimidin-4-yl)-1H-pyrazol-1-yl]cyclobutyl}acetonitrile]	< 10	>10
